The source of these data is patent US11078188B2, “Dihydroquinoxaline bromodomain recognition protein inhibitor, preparation method and use thereof” (SHANGHAI INSTITUTE OF MATERIA MEDICA, CHINESE ACADEMY OF …, priority 2017, dated 2021).

For series [1], the system named is CYP enzyme. As to the kind of experiment: Mechanistic inhibition test (TDI test). The series is classed as in vitro ADME. The conditions noted are these: human liver microsomes 0.2 mg/ml; mechanism inhibition if kobs greater than 200. How it is done:
The system which was 200 μl of human liver microsomes (final concentration: 0.2 mg/ml) was used for mechanistic inhibition incubation. The system contained 10 μl compound, mixed positive inhibitor (Troleandomycin 10 μl, Paroxetine 10 μl, Tienilic acid 10 μM, Furafylline 10 μl) or 10 μl negative control PRO. After NADPH (final concentration: 1 mM) or PBS was added, the system was incubated for 0 min, 5 min, 10 min and 30 min, then NADPH (final concentration: 1 mM) and mixed probe substrate (Midazolam 5 μM, Testosterone 50 μl, Dextromethophan 5 μM, Diclofenac 10 μl, Phenacetin 5 0 μM, S-(+)-mephenytoin 50 μl) were added and incubated for 10 min. Then the reaction was stopped. The test for positive inhibitor CYP2C19 was carried out alone, the inhibitor S-(+)-fluoxetine was 100 μM. The enzyme activity was calculated by measuring the relative production amount of metabolite. kobs was calculated.
(§1) HLM Clint (μl/min/mg) refers to the clearance rate of compounds in human liver microsomes having a unit of μl/min/mg; mLM Clint (μl/min/mg) refers to the clearance rate of compounds in mouse liver microsomes having a unit of μl/min/mg; HLM t1/2 (min) refers to the half-life of the compound in human liver microsomes having a unit of minutes; mLM t1/2 (min) refers to the half-life of the compound in mouse liver microsomes having a unit of minutes. TDI means that the mechanism inhibition test of compounds on CYP enzyme evaluates whether the compound has time-dependent inhibition of the enzyme.
In general terms: Liver microsomes are a subcellular fraction often used to study metabolism.

Series [2] addresses CYP2C19 (Homo sapiens (Human), UniProt P33261). The experiment in a line: Direct inhibition test (DI test), CYP 2C19. The series is classed as in vitro ADME. The conditions noted are these: human liver microsomes 0.2 mg/ml, read-out: Direct inhibition rate (%) 2C19. As for the experimental part: (§2) The system which was 100 μl of human liver microsomes (final concentration: 0.2 mg/ml) was used for direct inhibition incubation. The system contained NADPH (final concentration: 1 mM), 10 μl compound, positive inhibitor cocktail (ketoconazole, 10 μl, quinidine 10 μl, sulfaphenazole 100 μl, naphthoflavone 10 μl, tranylcypromine 1000 μl), negative control 10 μl DMSO and mixed probe substrate (midazolam 10 μl, testosterone 100 μl, dextromethorphan 10 μl, diclofenac 20 μl, phenacetin 100 μl, mephenytoin 100 μl). The reaction was stopped after the system was incubated for 20 min. The relative activity of the enzyme was calculated by measuring the relative amount of production of the metabolite.

The target in series [3] is CYP2D6 (Homo sapiens (Human), UniProt P10635). As to the kind of experiment: Direct inhibition test (DI test), CYP 2D6. Conditions: human liver microsomes 0.2 mg/ml, read-out: Direct inhibition rate (%) 2D6. The series is classed as in vitro ADME. As for the experimental part:
as §2

Series [4] can be described thus: Metabolic stability in mouse liver microsomes. The class given is in vitro ADME. Conditions: for microsomal CLint at 1 μM: read-out: mLM Clint.
In series [5] the target is CYP3A4 (Homo sapiens (Human), UniProt P08684). The experiment in a line: Direct inhibition test (DI test), CYP 3A4. The class given is in vitro ADME. The conditions noted are these: human liver microsomes 0.2 mg/ml, first of two values a/b (two 3A4 probes midazolam, testosterone; assignment not given), read-out: Direct inhibition rate (%) 3A4, first value. How it is done:
as §2

The target of series [6] is 3A4 (Homo sapiens (Human), UniProt P08684). The experiment in a line: Direct inhibition test (DI test), CYP 3A4. The series is classed as in vitro ADME. Conditions: human liver microsomes 0.2 mg/ml, 20 min; for Direct inhibition rate (%) 3A4, second value: second of two values a/b (two 3A4 probes midazolam, testosterone; assignment not given); for Direct inhibition rate (%) 3A4, first value: first of two values a/b (two 3A4 probes midazolam, testosterone; assignment not given). How it is done: as §2

Series [7] addresses CYP2C9 (Homo sapiens (Human), UniProt P11712). The experiment in a line: Direct inhibition test (DI test), CYP 2C9. The class given is in vitro ADME. Conditions: human liver microsomes 0.2 mg/ml, read-out: Direct inhibition rate (%) 2C9. How it is done:
as §2

The target of series [8] is BRD4 (I) (Homo sapiens (Human), UniProt O60885). The experiment in a line: Fluorescence anisotropy (FA) binding test on BRD4 (I). The conditions noted are these: BRD4 (I) 10 nM, fluorescent (+)-JQ1 substrate 5 nM, read-out: BRD4 (1) IC50. As for the experimental part: The binding activity of the compound to BRD4 (I) was tested using a fluorescence anisotropy (FA) method. The principle of FA test is to calculate and analyze the fluorescence polarization values in the horizontal and vertical directions by detecting the change of molecular weight before and after the interaction of fluorescein-labeled small molecules with other molecules. If the equilibrium of the binding between the fluorescently labeled small molecule and macromolecule is established, it will move slowly when excited, and the measured fluorescence polarization value will increase. If the binding between the fluorescently labeled small molecule and the macromolecule is replaced by another ligand, its rotation or flipping speed in the free state will be faster, and the emitted light will be depolarized relative to the plane of the excitation light, and the measured polarized light value will decrease to calculate the fluorescence anisotropy of the sample.
Expression and purification of the BRD4(I) recognition domain: colonies of newly transformed plasmid DNA from E. coli BL21(DE3)-condon plus-RIL cells were cultivated in 50 mL of Terrific Broth medium containing 50 μg/mL kanamycin and 34 μg/mL chloramphenicol at 37° C. overnight (starting culture). The starting culture was then diluted 100-fold in 1 L of fresh TB medium and the cells were grown at 37° C. to an optical density of about 0.8 at OD600 and then the temperature was lowered to 16° C. When the system was equilibrated at 16° C., the optical density at OD600 was approximately 1.2, and protein expression was induced with 0.2 mmol of isopropyl-β-D-thiogalactopyranoside (IPTG) overnight at 16° C. Bacteria were harvested by centrifugation (4000×g, 20 minutes, 4° C.) and stored as a pellet at −80° C. The cells expressing His 6-tagged protein was resuspend in lysis buffer [50 mmol 4-hydroxyethylpiperazineethanesulfonic acid (HEPES), 25° C., pH 7.5, 500 mmol NaCl, 10 mmol imidazole, 5% glycerol and freshly added 0.5 mmol of tris(2-carboxyethyl)phosphine hydrochloride (TCEP) and 1 mmol of phenylmethanesulfonyl fluoride (PMSF)] and lysed at 4° C. using JN 3000PLUS high pressure homogenizer (JNBIO-Guangzhou, China). The lysate was clarified by centrifugation (12,000×g for 1 hour at 4° C.) and applied to a nickel-nitriloacetate agarose column. The column was washed once with 50 mL of wash buffer containing 30 mmol of imidazole. The protein was eluted using imidazole in an elution buffer in a stepwise elution (100-250 mmol imidazole in 50 mmol HEPES, 25° C., pH 7.5, 500 mmol NaCl, 5% glycerol). All fractions were collected and monitored by SDS-polyacrylamide gel electrophoresis (Bio-Rad Criterion TM Precast Gels, 4-12% Bis-Tris, 1.0 mm, from Bio-Rad, CA). After 1 mmol of dithiothreitol (DTT) was added, the eluted proteins were treated with tobacco […] virus (TEV) protease overnight at 4° C. to remove the His6 tag. The protein was concentrated and further purified by size exclusion chromatography on a Superdex 75 16/60 HiLoad gel filtration column. The samples were monitored by SDS-polyacrylamide gel electrophoresis and concentrated to 8-10 mg/mL with gel filtration buffer, 10 mmol Hepes pH 7.5, 500 mM NaCl, 1 mmol DTT, and used for protein binding assays and crystallization.
The fluorogenic substrate was (+)-JQ1 linked to a fluorescent molecule and the working concentration was 5 nM. BRD4 (I) protein had 10 nM of working concentration and the total reaction system was 40 μL. The buffer was 50 mM 4-hydroxyethylpiperazineethanesulfonic acid (HEPES) pH 7.4, 150 mM NaCl, 0.5 mM 3[(3-cholamidopropyl)dimethylammonio]propanesulfonate (CHAPS). […] The final concentration of DMSO was chosen to be 0.2%, taking into account the solubility of the compound and the effect of DMSO on the assay. All measurements were made under these conditions. […]
In general terms: In fluorescence polarisation assays a small probe gives low polarisation when free and higher when bound to something large.

A short description of series [9]: Metabolic stability in human liver microsomes. The conditions noted are these: human liver microsomes 0.5 mg/ml, 1 μM compound, NADPH; for microsomal CLint at 1 μM: read-out: HLM Clint; for half-life at 1 μM: read-out: HLM t1/2. The series is classed as in vitro ADME. How it is done: The system which was 150 μl of human liver microsomes (final concentration: 0.5 mg/ml) was used for metabolic stability incubation. The system contained reduced coenzyme II (NADPH) (final concentration: 1 mM) and 1 μM compound, positive control or negative control. The reaction was terminated with acetonitrile containing (imiprozine, batch number: 3221; tinidazole, given) at 0 min, 5 min, 10 min, and 30 min, respectively. The mixture was vortexed for 10 min, centrifuged at 15000 rpm for 10 min, and 50 μl of the supernatant was injected into a 96-well plate. The metabolic stability of the compound was calculated by measuring the relative reduction in the original medicament.
as §1

For series [10], the system named is human myeloma cells MM.1S. As to the kind of experiment: MM.1S cell viability, CCK-8 method. The series is classed as cell-based. As for the experimental part: The MM.1S cell line was tested for cell viability. The test methods were as follows: human myeloma cells MM.1S were treated with compound for 72 h, and the proliferation inhibition effect and degree of the compound were detected by CCK-8 method.
A general note: Tetrazolium assays rely on reduction of a dye to a coloured formazan, in cell work by metabolically active cells.

Series [11] deals with MM.1S nude mice xenografts. The experiment in a line: Growth of MM.1S nude mice xenografts in vivo. Further details: species or system Balb/C nude mice. The conditions noted are these: 50 mg/kg qd/14 po. As for the experimental part:
Balb/C nude mice (6 weeks, female, Beijing Huafukang Biotechnology Co., Ltd.) were purchased, and the animals were conditioned for about one week before the test. MM.1S cells were cultured in vitro, and the cells in logarithmic growth phase were resuspended in serum-free RPMI1640 medium to adjust the cell concentration. The cell suspension was subcutaneously injected into forefoot armpit of the Balb/C nude mice with a syringe, and each animal was injected with 150 μL (8.0×10^6/mouse). When the average tumor volume grew to about ˜150 mm^3, the animals were divided into 4 groups containing solvent control group, 50 mg/kg OTX-015 group, and 20 and 50 mg/kg compound 6 groups by the randomized block method and each group contained six animals. […] During the administration period, the tumor diameter was measured twice a week, the body weight of the animals was weighed, the living state of the animals was observed, and abnormal conditions were recorded.
The formula for calculating tumor volume (TV): TV=½×a×b^2, where a and b represent length and width, respectively.
The relative tumor volume (RTV) was calculated based on the measured results, and the calculation formula was: RTV=Vt/V0. Wherein V0 was the measured tumor volume at the time of administration by cage (ie, d0), and Vt was the tumor volume at each measurement.
The relative tumor proliferation rate T/C (%) was calculated based on the measured results, and the calculation formula was as follows: T/C (%)=(TRTV/CRTV)×100%, TRTV: treatment group RTV; CRTV: negative control group RTV.

For series [12], the system named is DLBCL cells. Conditions: cited from earlier work.

Sequence of 3A4 (P08684 whole entry): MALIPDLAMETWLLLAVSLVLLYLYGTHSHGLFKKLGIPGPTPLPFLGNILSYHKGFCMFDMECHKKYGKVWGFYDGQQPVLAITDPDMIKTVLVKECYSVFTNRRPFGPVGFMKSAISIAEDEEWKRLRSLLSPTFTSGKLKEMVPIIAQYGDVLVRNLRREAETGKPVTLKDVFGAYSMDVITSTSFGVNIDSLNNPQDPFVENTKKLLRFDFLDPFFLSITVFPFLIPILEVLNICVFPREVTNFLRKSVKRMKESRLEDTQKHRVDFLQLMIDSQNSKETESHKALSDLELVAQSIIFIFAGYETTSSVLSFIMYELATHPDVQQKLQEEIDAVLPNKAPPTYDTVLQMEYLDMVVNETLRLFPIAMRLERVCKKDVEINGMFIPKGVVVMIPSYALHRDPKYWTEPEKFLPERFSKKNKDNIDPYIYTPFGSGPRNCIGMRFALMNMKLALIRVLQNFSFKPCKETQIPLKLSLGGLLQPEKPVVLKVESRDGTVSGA
Sequence of CYP2C9 (P11712 whole entry): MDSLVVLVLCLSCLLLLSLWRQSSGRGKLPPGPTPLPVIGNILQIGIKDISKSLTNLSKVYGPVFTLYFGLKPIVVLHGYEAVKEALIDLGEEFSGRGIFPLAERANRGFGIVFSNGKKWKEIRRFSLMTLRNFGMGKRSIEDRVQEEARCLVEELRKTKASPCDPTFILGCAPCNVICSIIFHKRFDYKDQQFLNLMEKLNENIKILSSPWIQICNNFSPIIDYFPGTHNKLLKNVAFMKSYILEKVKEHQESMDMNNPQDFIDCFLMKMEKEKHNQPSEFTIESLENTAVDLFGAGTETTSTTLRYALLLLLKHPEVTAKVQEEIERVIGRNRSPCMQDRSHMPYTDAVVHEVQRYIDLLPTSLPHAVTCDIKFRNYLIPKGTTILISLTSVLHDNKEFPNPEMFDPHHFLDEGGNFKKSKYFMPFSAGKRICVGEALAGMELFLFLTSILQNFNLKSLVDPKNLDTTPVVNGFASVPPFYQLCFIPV
Sequence of CYP2C19 (P33261 whole entry): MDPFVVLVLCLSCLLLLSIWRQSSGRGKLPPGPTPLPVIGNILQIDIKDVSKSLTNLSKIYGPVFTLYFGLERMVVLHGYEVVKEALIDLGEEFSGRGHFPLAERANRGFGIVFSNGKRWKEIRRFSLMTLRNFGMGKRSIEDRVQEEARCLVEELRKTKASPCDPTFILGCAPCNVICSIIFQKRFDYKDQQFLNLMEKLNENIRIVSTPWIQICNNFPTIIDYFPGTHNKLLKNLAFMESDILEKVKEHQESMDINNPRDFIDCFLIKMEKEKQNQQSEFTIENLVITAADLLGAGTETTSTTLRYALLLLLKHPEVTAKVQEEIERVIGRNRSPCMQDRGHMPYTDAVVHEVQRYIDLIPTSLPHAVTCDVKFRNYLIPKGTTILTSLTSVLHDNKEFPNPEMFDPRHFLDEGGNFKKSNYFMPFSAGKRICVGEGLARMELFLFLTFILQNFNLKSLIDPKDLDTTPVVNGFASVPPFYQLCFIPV
Sequence of CYP2D6 (P10635 whole entry): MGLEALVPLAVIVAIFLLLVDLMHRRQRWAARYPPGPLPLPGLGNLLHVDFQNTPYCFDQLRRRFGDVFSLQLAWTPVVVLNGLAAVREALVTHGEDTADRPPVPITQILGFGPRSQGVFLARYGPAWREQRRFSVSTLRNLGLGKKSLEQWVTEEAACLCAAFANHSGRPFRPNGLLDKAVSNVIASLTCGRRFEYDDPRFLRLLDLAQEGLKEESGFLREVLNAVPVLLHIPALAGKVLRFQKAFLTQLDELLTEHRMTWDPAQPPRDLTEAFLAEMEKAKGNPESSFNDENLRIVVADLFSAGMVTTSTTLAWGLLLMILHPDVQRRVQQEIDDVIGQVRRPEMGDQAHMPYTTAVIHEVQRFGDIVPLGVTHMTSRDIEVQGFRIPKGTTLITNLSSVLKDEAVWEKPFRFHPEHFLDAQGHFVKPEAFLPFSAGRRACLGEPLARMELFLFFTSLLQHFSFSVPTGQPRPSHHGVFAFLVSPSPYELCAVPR
Sequence of CYP3A4 (P08684 whole entry): as the sequence (P08684 whole entry) above

The term inhibition denotes the relative decrease from the control value, in per cent. Usually IC50 stands for the concentration at which inhibition is half-maximal. As for `Cc1ccc(-n2nc(C(=O)N3CCN(C)CC3)cc2-c2ccc3c(c2)N(C2CCCC2)[C@H](C)C(=O)N3C)cc1` [Example 26], the TDI entry in [1] is “no”. The inhibition at 20 min in series [2] was determined as 34%; in series [3] it was 4%; in series [5], 35%; in [7] it was 39%. The half-life at 1 μM amounted to 27 min in series [4] (read-out: MLM t1/2) and 21 min in series [9]. Further, the microsomal CLint at 1 μM in series [4] is 52 µL/min/mg; in [9], 66 µL/min/mg. Besides, the “Direct inhibition rate (%) 3A4, second value” in series [6] was determined as 37%. In addition, the IC50 in series [8] was found to be 5.1 nM.
As for `Cc1ccc(-n2nc(C(=O)N3C[C@@H](C)N[C@@H](C)C3)cc2-c2ccc3c(c2)N(C2CCCC2)[C@H](C)C(=O)N3C)cc1` [Example 27], the TDI result in series [1] was “no”. For the same molecule, the figures for the inhibition at 20 min in series [2], in series [3] and in [7] were 19%, 6% and 27%, respectively. For the same molecule, the figures for the half-life at 1 μM in series [4] (read-out: half-lives in mouse liver microsomes) and in [9] were 248 min and 25 min, respectively. For the same molecule, the microsomal CLint at 1 μM was 6 µL/min/mg in series [4] and 55 µL/min/mg in [9]. Further, in [6], the “Direct inhibition rate (%) 3A4, first value” is 24%. Also, the “Direct inhibition rate (%) 3A4, second value” in series [6] was found to be 47%. In series [8], the IC50 is 4.9 nM.
Turning to `Cc1ccc(-n2nc(C(=O)N3CCN(C)CC3)nc2-c2ccc3c(c2)N(C2CC2)C(C)C(=O)N3C)cc1` (stereo not shown) [Example 33], the TDI entry in [1] is recorded as “no”. Moreover, in series [4], the “MLM t1/2” value amounted to 107 min and the “mLM Clint” value was determined as 13 µL/min/mg. In [6], the “Direct inhibition rate (%) 3A4, first value” is 7% and the “Direct inhibition rate (%) 3A4, second value” came to 12%. Besides, the IC50 in series [10] (72 h treatment, CCK-8) came to 10.7 ± 2.59 nM. Moreover, the “inhibitory activity against the MM.1S cell line (in words)” value in series [10] (compared with positive (+)-JQ1) is “better inhibitory activity against the MM.1S cell line than the positive (+)-JQ1”. Further, the IC50 in series [8] was determined as 15.7 nM. In [9], the “HLM Clint” value stood at 22 µL/min/mg and the “HLM t1/2” value is 62 min.
Regarding `Cc1sc2c(c1C)C(c1ccc(Cl)cc1)=N[C@@H](CC(=O)Nc1ccc(O)cc1)c1nnc(C)n1-2` [OTX-015, reference compound], in series [11], the “RTV (mean SD)” value amounted to 603.15 and the “T/C (%)” value stood at 49.90%. The “TV (mm^3, mean) d0” value in series [11] (d0 (at start of administration)) worked out at 184.48 mm^3. In addition, the “TV (mm^3, mean) d14” value in series [11] (d14) was 886.75 mm^3. Further, the IC50 in series [12] was 192 nM.
